Values quoted from earlier work, collected in patent publication US20120302647A1, “SYNTHESIS OF MAGNOLOL AND ITS ANALOGUE COMPOUNDS” (INDIAN INSTITUTE OF CHEMICAL TECHNOLOGY, priority 2010, published 2012).

Columns and labels:
[1] = times greater than α-tocopherol
[2] = tested on: myocardium
[3] = tested on: cortical neuron-astrocyte mixed cultures; conditions: chemical hypoxia by KCN

## C=CCc1ccc(O)c(-c2cc(CC=C)ccc2O)c1 [magnolol, 5,5′-diallylbiphenyl-2,2′-diol]
[1]
  antioxidant activity relative to α-tocopherol: 1000 times
[2]
  protection of the myocardium against infarction and reperfusion injury: protecting the myocardium against infarction and reperfusion injury
[3]
  protection of neurons against chemical hypoxia: protects neurons against chemical hypoxia by KCN
